The series in a line: Determination of the thickener performance in mixture A. To be noted: for Viscosity: 1% by weight added to mixture A (15% by weight in water, sodium laureth-2 sulfate:cocobetain 8:2), mixture A alone 135; for thickener performance (in words): 1% by weight in mixture A, summary of Table 1. Format: physicochemical. The text has this: Using Genapol® LRO (sodium laureth-2 sulfate, 27% by weight in water) and Genagen® KB (cocobetain, 30% by weight in water) and additionally water, a 15% by weight mixture in water comprising the two surfactants in a weight ratio of 8:2 (hereinbelow referred to as “mixture A”) is obtained.

Turning to isosorbide dicaprylate, the Viscosity worked out at 2390 mPa · s and the “thickener performance (in words)” value is on record as “significant thickening”.
For `O[C@@H]1CO[C@H]2[C@@H]1OC[C@@H]2O` [isosorbide], in that order: 160 mPa · s and “not worth mentioning”.
